Measurements as given in ChEMBL document CHEMBL4334471, “Discovery of 1,8-disubstituted-[1,2,3]triazolo[4,5-c]quinoline derivatives as a new class of Hippo signaling pathway inhibitors” (Bioorg Med Chem Lett, 2019).

Legend:
[1] = molecular target: Dual specificity tyrosine-phosphorylation-regulated kinase 1B (Homo sapiens) (UniProt Q9Y463); experiment: Inhibition of recombinant human DYRK1B assessed as residual activity at 10 uM using RRRFRPASPLRGPP as substrate at 40 mins in presence of [gamma-33ATP] by scintillation counting based radiometry assay relative to control
[2] = molecular target: Testis-specific serine/threonine-protein kinase 1 (Homo sapiens) (UniProt Q9BXA7); experiment: Inhibition of recombinant full-length human TSSK1 assessed as residual activity at 10 uM using KKKVSRSGLYRSPSMPENLNRPR as substrate incubated for 40 mins in presence of [gamma33P]ATP by scintillation counting based radiometry assay relative to control
[3] = molecular target: Serine/threonine-protein kinase 17A (Homo sapiens) (UniProt Q9UEE5); experiment: Inhibition of recombinant human DRAK1 assessed as residual activity at 10 uM using KKLNRTLSFAEPG as substrate at 40 mins in presence of [gamma-33ATP] by scintillation counting based radiometry assay relative to control
[4] = molecular target: 3-phosphoinositide-dependent protein kinase 1 (Homo sapiens) (UniProt O15530); experiment: Inhibition of recombinant human PDK1 (52 to end residues) assessed as residual activity at 10 uM using PDKtide as substrate incubated for 40 mins in presence of [gamma33P]ATP by scintillation counting based radiometry assay relative to control
[5] = molecular target: MAP kinase-interacting serine/threonine-protein kinase 2 (Homo sapiens) (UniProt Q9HBH9); experiment: Inhibition of recombinant human MNK2 assessed as residual activity at 10 uM using myelin basic protein as substrate incubated for 40 mins in presence of [gamma-33ATP by scintillation counting based radiometry assay relative to control
[6] = tested on: Epidermal growth factor receptor (Homo sapiens), P00533 [L858R]; experiment: Inhibition of recombinant human EGFR L858R mutant (696 to end residues) assessed as residual activity at 10 uM using poly(Glu, Tyr) 4:1 as substrate at 40 mins in presence of [gamma-33ATP] by scintillation counting based radiometry assay relative to control
[7] = molecular target: Serine/threonine-protein kinase 24 (Homo sapiens) (UniProt Q9Y6E0); experiment: Inhibition of recombinant human MST3 (1 to 304 residues) assessed as residual activity at 10 uM using ERMRPRKRQGSVR as substrate measured after 40 mins in presence of [gamma33P]ATP by scintillation counting based radiometry assay relative to control
[8] = tested on: Serine/threonine-protein kinase Sgk1 (Homo sapiens), O00141 [S422D]; experiment: Inhibition of recombinant human SGK S422D mutant (60 to end residues) assessed as residual activity at 10 uM using GRPRTSSFAEGKK as substrate incubated for 40 mins in presence of [gamma33P]ATP by scintillation counting based radiometry assay relative to control
[9] = molecular target: Vascular endothelial growth factor receptor 2 (Homo sapiens) (UniProt P35968); experiment: Inhibition of human KDR (790 to end residues) assessed as residual activity at 10 uM using myelin basic protein as substrate after 40 mins by [gamma-33ATP] radiometric assay relative to control
[10] = molecular target: Serine/threonine-protein kinase Chk2 (Homo sapiens) (UniProt O96017); experiment: Inhibition of recombinant human CHK2 (5 to end residues) assessed as residual activity at 10 uM using KKKVSRSGLYRSPSMPENLNRPR as substrate incubated for 40 mins in presence of [gamma-33ATP] by scintillation counting based radiometry assay relative to control
[11] = molecular target: Tyrosine-protein kinase JAK3 (Homo sapiens) (UniProt P52333); experiment: Inhibition of human JAK3 (781 to end residues) assessed as residual activity at 10 uM using GGEEEEYFELVKKKK as substrate after 40 mins by [gamma-33ATP] radiometric assay relative to control
[12] = molecular target: Calcium/calmodulin-dependent protein kinase type II subunit gamma (Homo sapiens) (UniProt Q13555); experiment: Inhibition of recombinant human CaMK2gamma (1 to 330 residues) assessed as residual activity at 10 uM using […] incubated for 40 mins in presence of [gamma-33ATP] by scintillation counting based radiometry assay relative to control
[13] = molecular target: Serine/threonine-protein kinase PLK2 (Homo sapiens) (UniProt Q9NYY3); experiment: Inhibition of recombinant human SNK (65 to 409 residues) assessed as residual activity at 10 uM using casein as substrate incubated for 40 mins in presence of [gamma33P]ATP by scintillation counting based radiometry assay relative to control
[14] = tested on: Tyrosine-protein kinase receptor UFO (Homo sapiens), P30530 [Q764R]; experiment: Inhibition of recombinant human Axl Q764R mutant (473 to end residues) assessed as residual activity at 10 uM using KKSRGDYMTMQIG as substrate incubated for 40 mins in presence of [gamma-33ATP] by scintillation counting based radiometry assay relative to control
[15] = tested on: Glycogen synthase kinase-3 beta (Homo sapiens), P49841 [UNDEFINED MUTATION]; experiment: Inhibition of human GSK-3beta H350L mutant (2 to end residues) assessed as residual activity at 10 uM using phospho GS2 peptide as substrate after 40 mins by [gamma-33ATP] radiometric assay relative to control
[16] = molecular target: Tyrosine-protein kinase ITK/TSK (Homo sapiens) (UniProt Q08881); experiment: Inhibition of human Itk (352 to 617 residues) assessed as residual activity at 10 uM using myelin basic protein as substrate after 40 mins by [gamma-33ATP] radiometric assay relative to control
[17] = molecular target: Protein-tyrosine kinase 2-beta (Homo sapiens) (UniProt Q14289); experiment: Inhibition of recombinant human full length PYK2 assessed as residual activity at 10 uM using poly(Glu, Tyr) 4:1 as substrate incubated for 40 mins in presence of [gamma33P]ATP by scintillation counting based radiometry assay relative to control
[18] = molecular target: Muscle, skeletal receptor tyrosine-protein kinase (Homo sapiens) (UniProt O15146); experiment: Inhibition of recombinant human MUSK (530 to end residues) assessed as residual activity at 10 uM using myelin basic protein as substrate measured after 40 mins in presence of [gamma33P]ATP by scintillation counting based radiometry assay relative to control
[19] = molecular target: Mitogen-activated protein kinase kinase kinase 5 (Homo sapiens) (UniProt Q99683); experiment: Inhibition of recombinant human ASK1 (649 to 946 residues) assessed as residual activity at 10 uM using myelin basic protein as substrate incubated for 40 mins in presence of [gamma-33ATP] by scintillation counting based radiometry assay relative to control
[20] = tested on: Platelet-derived growth factor receptor alpha (Homo sapiens), P16234 [V561D]; experiment: Inhibition of human PDGFRalpha V561D mutant (550 to end residues) assessed as residual activity at 10 uM using poly(Glu, Tyr) 4:1 as substrate measured after 40 mins in presence of [gamma33P]ATP by scintillation counting based radiometry assay relative to control
[21] = molecular target: Aurora kinase C (Homo sapiens) (UniProt Q9UQB9); experiment: Inhibition of recombinant human Aurora C (35 to end residues) assessed as residual activity at 10 uM using AKRRRLSSLRA as substrate incubated for 40 mins in presence of [gamma-33ATP] by scintillation counting based radiometry assay relative to control

Vascular endothelial growth factor receptor 2 (Homo sapiens), sequence (P35968 whole entry): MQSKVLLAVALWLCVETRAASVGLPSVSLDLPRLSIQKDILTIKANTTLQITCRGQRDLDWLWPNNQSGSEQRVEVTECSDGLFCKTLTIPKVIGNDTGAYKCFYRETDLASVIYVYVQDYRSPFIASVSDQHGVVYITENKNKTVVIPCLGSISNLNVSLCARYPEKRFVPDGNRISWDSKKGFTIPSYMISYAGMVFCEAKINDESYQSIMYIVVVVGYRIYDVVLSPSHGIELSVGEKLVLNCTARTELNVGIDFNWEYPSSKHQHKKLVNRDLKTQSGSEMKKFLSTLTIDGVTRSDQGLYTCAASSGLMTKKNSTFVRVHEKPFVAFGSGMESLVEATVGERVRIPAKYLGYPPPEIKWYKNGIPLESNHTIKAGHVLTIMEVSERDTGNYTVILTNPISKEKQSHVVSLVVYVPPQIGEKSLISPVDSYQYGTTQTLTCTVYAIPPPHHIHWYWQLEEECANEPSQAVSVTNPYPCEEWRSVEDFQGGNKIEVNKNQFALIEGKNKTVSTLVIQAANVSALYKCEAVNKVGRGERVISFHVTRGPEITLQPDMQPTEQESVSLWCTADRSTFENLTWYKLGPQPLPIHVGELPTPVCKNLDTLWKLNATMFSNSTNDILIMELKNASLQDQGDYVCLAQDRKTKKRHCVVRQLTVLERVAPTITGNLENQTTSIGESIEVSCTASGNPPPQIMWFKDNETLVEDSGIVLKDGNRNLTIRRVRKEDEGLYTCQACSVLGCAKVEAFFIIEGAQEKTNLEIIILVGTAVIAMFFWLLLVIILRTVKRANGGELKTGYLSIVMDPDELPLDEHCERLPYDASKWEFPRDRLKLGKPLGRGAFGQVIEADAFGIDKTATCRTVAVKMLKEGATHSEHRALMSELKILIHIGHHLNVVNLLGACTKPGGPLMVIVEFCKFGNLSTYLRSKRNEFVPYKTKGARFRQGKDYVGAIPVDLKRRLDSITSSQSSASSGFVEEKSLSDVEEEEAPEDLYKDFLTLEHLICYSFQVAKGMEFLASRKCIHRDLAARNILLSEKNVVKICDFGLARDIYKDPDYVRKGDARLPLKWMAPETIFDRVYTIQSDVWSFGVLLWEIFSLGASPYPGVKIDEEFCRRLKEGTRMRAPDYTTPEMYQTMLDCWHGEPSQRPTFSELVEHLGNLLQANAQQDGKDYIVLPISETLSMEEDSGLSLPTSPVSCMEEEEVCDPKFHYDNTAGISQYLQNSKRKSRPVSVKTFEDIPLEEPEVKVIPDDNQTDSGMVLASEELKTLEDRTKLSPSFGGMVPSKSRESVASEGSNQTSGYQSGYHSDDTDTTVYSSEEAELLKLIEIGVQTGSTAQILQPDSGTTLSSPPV
Serine/threonine-protein kinase Sgk1 (Homo sapiens), O00141 [S422D], sequence (O00141 whole entry S422D): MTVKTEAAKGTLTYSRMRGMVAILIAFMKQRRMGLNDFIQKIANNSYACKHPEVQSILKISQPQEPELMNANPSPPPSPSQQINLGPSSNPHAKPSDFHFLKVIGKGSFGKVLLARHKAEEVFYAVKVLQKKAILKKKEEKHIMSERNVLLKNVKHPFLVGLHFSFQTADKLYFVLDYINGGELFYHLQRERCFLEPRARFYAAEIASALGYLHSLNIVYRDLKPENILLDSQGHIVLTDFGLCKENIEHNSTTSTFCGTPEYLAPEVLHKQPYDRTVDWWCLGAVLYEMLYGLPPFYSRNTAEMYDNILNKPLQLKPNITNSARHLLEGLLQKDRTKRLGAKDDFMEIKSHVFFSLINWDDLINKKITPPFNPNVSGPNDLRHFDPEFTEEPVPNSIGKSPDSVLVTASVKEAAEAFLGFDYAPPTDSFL
Serine/threonine-protein kinase Chk2 (Homo sapiens), sequence (O96017 whole entry): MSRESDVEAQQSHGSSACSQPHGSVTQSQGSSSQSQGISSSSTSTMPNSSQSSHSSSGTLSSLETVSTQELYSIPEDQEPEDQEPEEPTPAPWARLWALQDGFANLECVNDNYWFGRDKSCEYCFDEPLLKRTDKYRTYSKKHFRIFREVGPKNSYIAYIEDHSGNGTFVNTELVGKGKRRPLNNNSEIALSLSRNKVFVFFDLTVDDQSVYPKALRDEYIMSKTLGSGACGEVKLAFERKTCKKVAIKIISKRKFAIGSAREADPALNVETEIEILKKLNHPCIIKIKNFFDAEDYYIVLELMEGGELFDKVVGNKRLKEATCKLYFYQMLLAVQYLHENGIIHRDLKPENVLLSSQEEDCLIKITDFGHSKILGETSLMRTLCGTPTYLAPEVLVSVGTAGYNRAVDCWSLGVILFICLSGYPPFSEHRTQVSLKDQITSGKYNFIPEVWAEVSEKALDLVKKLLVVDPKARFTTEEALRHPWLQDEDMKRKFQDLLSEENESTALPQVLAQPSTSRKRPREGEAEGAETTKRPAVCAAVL
Tyrosine-protein kinase JAK3 (Homo sapiens), sequence (P52333 whole entry, the tested form may be a part): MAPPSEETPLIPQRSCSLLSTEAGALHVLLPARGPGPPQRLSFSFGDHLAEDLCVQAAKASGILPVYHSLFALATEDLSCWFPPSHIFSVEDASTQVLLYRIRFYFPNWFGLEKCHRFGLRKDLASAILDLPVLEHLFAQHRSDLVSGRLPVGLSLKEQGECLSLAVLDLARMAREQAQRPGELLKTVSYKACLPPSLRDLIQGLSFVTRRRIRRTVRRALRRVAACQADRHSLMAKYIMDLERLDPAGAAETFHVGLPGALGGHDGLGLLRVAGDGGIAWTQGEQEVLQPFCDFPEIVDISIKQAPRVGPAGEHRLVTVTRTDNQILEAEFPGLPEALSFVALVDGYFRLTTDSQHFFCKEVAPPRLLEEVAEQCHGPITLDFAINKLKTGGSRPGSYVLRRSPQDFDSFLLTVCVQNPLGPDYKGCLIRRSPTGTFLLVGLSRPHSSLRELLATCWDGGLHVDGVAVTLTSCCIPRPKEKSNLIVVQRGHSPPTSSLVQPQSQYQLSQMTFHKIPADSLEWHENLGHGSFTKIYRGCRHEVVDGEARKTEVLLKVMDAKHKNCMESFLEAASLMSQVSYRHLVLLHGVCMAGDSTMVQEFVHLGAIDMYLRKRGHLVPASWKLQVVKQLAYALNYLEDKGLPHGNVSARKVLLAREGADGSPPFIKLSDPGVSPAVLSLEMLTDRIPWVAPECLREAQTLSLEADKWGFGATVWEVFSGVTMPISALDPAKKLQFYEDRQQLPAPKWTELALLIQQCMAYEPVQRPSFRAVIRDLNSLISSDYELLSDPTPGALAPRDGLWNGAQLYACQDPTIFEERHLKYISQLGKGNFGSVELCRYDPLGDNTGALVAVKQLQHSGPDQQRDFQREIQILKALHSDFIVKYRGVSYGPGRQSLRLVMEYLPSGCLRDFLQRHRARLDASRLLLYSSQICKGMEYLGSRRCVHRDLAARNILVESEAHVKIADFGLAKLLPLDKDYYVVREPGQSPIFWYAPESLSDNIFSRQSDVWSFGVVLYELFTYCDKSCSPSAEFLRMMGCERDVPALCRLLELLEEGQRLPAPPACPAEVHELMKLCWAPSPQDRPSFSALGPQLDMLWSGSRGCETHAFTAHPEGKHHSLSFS
Testis-specific serine/threonine-protein kinase 1 (Homo sapiens), sequence (Q9BXA7 whole entry): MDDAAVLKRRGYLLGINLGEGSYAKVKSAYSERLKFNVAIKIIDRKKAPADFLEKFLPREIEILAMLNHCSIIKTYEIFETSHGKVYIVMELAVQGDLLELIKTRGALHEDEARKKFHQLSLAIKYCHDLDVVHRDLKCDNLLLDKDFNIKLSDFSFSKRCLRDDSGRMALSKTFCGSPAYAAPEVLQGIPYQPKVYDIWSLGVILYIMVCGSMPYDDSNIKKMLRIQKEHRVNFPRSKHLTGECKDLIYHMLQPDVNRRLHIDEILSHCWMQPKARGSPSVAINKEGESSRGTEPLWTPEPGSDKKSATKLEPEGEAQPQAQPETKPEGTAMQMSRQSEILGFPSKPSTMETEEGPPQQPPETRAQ
Serine/threonine-protein kinase 17A (Homo sapiens), sequence (Q9UEE5 whole entry): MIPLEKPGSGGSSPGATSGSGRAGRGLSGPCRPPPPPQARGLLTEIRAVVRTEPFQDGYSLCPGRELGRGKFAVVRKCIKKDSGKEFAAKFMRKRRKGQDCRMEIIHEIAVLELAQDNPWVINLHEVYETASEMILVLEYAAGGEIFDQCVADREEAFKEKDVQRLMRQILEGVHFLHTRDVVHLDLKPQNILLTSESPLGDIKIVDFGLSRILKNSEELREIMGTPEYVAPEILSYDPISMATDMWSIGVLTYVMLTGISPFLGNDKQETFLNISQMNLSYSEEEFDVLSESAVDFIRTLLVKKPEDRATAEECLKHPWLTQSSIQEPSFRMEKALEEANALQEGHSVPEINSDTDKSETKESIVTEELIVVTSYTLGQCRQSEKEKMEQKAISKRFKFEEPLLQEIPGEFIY
Calcium/calmodulin-dependent protein kinase type II subunit gamma (Homo sapiens), sequence (Q13555 whole entry, the tested form may be a part): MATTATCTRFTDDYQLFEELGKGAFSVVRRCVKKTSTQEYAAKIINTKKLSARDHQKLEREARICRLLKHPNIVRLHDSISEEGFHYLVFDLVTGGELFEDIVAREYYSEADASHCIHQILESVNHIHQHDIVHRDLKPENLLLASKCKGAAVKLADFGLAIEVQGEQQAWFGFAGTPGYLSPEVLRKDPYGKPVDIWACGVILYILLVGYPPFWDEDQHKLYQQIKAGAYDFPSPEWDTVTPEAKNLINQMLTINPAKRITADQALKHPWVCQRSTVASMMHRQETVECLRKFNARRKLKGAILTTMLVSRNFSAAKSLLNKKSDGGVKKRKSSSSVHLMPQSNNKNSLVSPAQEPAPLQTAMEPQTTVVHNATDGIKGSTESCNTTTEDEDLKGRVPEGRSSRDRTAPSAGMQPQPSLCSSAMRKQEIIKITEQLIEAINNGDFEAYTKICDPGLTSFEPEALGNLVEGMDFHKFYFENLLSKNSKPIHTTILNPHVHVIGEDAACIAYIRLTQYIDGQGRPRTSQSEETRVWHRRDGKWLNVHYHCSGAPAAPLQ

C[C@@H](c1ccccc1)n1nnc2cnc3ccc(-c4cnc5[nH]ccc5c4)cc3c21
Activity [1]: 83% | Activity [2]: 74% | Activity [3]: 60% | Activity [4]: 80% | Activity [5]: 84% | Activity [6]: 40% | Activity [7]: 90% | Activity [8]: 52% | Activity [9]: 63% | Activity [10]: 57% | Activity [11]: 43% | Activity [12]: 72% | Activity [13]: 90% | Activity [14]: 64% | Activity [15]: 81% | Activity [16]: 64% | Activity [17]: 59% | Activity [18]: 74% | Activity [19]: 58% | Activity [20]: 2% | Activity [21]: 68%
